Results published in ChEMBL document CHEMBL1268954, “Toward the development of innovative bifunctional agents to induce differentiation and to promote apoptosis in leukemia: clinical candidates and perspectives” (J Med Chem, 2010).
Each block holds one compound with its values, some of them ahead of it.

Key:
[1] = Oral bioavailability in dog; type: ADME, organism-based, Canis lupus familiaris; settings: in vivo
[2] = Oral bioavailability in mouse; type: ADME, organism-based; settings: in vivo
[3] = Oral bioavailability in rat; type: ADME, organism-based; settings: in vivo
[4] = biological target: Apoptosis regulator Bcl-2 (Homo sapiens, UniProt P10415); experiment: Binding affinity to BCl2
[5] = Inhibition of FTase
[6] = Induction of apoptosis in human CLL cells; type: functional, cell-based
[7] = Aqueous solubility of the compound; type: physicochemical; settings: aqueous medium
[8] = Selectivity ratio of IC50 for cathepsin to IC50 for proteasome
[9] = Inhibition of proteasome; type: subcellular
[10] = biological target: T1, Cathepsin G (Homo sapiens, UniProt P08311); experiment: Inhibition of cathepsin G
T1 sequence (P08311 whole entry): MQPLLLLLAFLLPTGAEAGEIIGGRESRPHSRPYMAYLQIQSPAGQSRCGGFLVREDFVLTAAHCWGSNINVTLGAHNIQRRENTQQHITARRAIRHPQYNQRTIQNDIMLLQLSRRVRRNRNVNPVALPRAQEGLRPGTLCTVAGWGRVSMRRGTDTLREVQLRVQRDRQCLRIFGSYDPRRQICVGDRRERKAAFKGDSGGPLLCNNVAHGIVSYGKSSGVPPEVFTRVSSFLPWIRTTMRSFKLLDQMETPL

[11] = biological target: T1, Cathepsin G; experiment: Inhibition of cathepsin G in human MOLT4 cells; type: cell-based, MOLT-4

Sequence of Apoptosis regulator Bcl-2 (P10415 whole entry): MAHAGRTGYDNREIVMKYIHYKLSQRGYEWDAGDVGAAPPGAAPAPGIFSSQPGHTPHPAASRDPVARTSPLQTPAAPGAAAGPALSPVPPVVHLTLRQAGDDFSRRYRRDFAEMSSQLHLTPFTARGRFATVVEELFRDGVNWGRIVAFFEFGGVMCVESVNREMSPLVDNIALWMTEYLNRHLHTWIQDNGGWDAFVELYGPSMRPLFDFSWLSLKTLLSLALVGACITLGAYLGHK

SMILES: COC[C@H](NC(=O)c1cnc(C)s1)C(=O)N[C@@H](COC)C(=O)N[C@@H](Cc1ccccc1)C(=O)[C@]1(C)CO1
- bioavailability [1]: 39%
- bioavailability [2]: 17%
- bioavailability [3]: 21%

SMILES: Cn1cncc1[C@](N)(c1ccc(Cl)cc1)c1ccc2c(c1)c(-c1cccc(Cl)c1)cc(=O)n2C [(S)-TIPIFARNIB]
- EC50 [5]: 1.8 nM

SMILES: Cn1cncc1[C@@](N)(c1ccc(Cl)cc1)c1ccc2c(c1)c(-c1cccc(Cl)c1)cc(=O)n2C [TIPIFARNIB]
- IC50 [5]: 0.6 nM

Continued, values first:

- Ki [4]: 62 nM
SMILES: CN(C)CC[C@H](CSc1ccccc1)Nc1ccc(S(=O)(=O)NC(=O)c2ccc(N3CCC(C)(C)CC3)cc2)cc1[N+](=O)[O-]

- EC50 [6]: 4.5 nM
- solubility [7]: < 1 µg/mL
SMILES: CN(C)CC[C@H](CSc1ccccc1)Nc1ccc(S(=O)(=O)NC(=O)c2ccc(N3CCN(Cc4ccccc4-c4ccc(Cl)cc4)CC3)cc2)cc1[N+](=O)[O-] [ABT 737]

- Ratio IC50 [8]: 200000
- IC50 [9]: 0.6 nM
SMILES: CC(C)C[C@H](NC(=O)[C@H](Cc1ccccc1)NC(=O)c1cnccn1)B(O)O [BORTEZOMIB]

- IC50 [10]: 13.7 nM
- EC50 [11]: 13.5 nM
SMILES: CC(C)C[C@H](NC(=O)[C@@H](NC(=O)c1cccc(-c2ccccc2)n1)[C@@H](C)O)B(O)O [DELANZOMIB]
